Experimental data taken from US20090012045A1, “Methods of Treating Cell Proliferative Disorders” (RIGEL PHARMACEUTICALS, INC., priority 2007, published 2009).

Key:
[1] = in vivo metabolism of prodrug to active drug
Excerpt: It has recently been discovered that a phosphate-containing prodrug according to the structure illustrated below (Compound P-1):
19, 2006 (US2006/0211657 A1), at paragraphs 134-142 and 146 of the printed publication.

[2] = in vitro metabolism of prodrug to active drug; format: in vitro ADME; conditions: rat plasma, rat hepatic and intestinal microsomal preparations
Excerpt: Although phosphate-containing prodrugs suitable for oral administration are of interest, skilled artisans will appreciate that prodrugs including phosphate-containing progroups R^p can be administered via other routes of administration, as phosphatases are distributed throughout the body. […] Thus, the only requirement is that the particular phosphate-containing progroup R^p selected should be removable under the conditions of intended use.

[3] = target: Ret (h) (Homo sapiens, UniProt P07949); experiment: RET kinase activity, [γ-33P-ATP] filter assay; format: biochemical
Protocol: RET kinase is pre-diluted to a 10× working concentration prior to addition into the assay. The composition of the dilution buffer is 20 mM MOPS pH 7.0, 1 mM EDTA, 0.1% p-mercaptoethanol, 0.01% Brij-35, 5% glycerol and 1 mg/ml BSA.
The reaction is initiated by the addition of the MgATP mix. After incubation for 40 minutes at room temperature, the reaction is stopped by the addition of 5 μL of a 3% phosphoric acid solution. 10 μL of the reaction is then spotted onto a P30 filtermat and washed three times for 5 minutes in 75 mM phosphoric acid and once in methanol prior to drying and scintillation counting.

[4] = target: T1, Ret (Homo sapiens, UniProt P07949); experiment: Ret autophosphorylation, fluorescence polarization assay; format: biochemical; conditions: 4 ng Ret, 5 μM ATP, 20 min; read-out: IC50 for inhibition of Ret autophosphorylation
T1 construct: purchased Upstate 14-570
T1 sequence (P07949 658-1114 limits assumed): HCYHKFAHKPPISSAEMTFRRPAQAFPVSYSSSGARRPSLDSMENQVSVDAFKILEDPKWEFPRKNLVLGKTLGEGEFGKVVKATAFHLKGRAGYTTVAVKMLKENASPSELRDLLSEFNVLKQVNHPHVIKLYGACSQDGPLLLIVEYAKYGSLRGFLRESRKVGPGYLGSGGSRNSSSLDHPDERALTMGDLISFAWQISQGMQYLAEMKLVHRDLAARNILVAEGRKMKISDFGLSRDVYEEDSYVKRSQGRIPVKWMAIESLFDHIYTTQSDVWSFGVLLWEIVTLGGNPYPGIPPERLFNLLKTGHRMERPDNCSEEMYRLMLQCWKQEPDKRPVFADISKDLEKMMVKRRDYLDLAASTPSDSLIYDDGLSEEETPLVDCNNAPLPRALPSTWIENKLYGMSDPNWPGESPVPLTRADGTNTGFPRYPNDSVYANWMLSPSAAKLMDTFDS
Protocol: Compounds were serially diluted in DMSO starting from 500× the desired final concentration and then diluted to 1% DMSO in kinase buffer (20 mM HEPES, pH 7.4, 5 mM MgCl2, 2 mM MnCl2, 1 mM DTT, 0.1 mg/mL acetylated BGG). Compound in 1% DMSO (0.2% DMSO final) was mixed with ATP in kinase buffer at room temperature.
Reactions were allowed to proceed at room temperature.
The plates were incubated for 30 minutes in the dark at room temperature and then read on a Polarion fluorescence polarization plate reader (Tecan).
Data were converted to amount of phosphopeptide present using a calibration curve generated by competition with the phosphopeptide competitor provided in the Tyrosine Kinase Assay Kit, Green (Invitrogen).

[5] = compound concentration 0.3 micromoles
[6] = compound concentration 1 micromoles
[7] = compound concentration 0.2 micromoles
[8] = compound concentration 0.02 micromoles
[9] = compound concentration 0.03 micromoles

Sequence of Ret (h) (P07949 29-1114): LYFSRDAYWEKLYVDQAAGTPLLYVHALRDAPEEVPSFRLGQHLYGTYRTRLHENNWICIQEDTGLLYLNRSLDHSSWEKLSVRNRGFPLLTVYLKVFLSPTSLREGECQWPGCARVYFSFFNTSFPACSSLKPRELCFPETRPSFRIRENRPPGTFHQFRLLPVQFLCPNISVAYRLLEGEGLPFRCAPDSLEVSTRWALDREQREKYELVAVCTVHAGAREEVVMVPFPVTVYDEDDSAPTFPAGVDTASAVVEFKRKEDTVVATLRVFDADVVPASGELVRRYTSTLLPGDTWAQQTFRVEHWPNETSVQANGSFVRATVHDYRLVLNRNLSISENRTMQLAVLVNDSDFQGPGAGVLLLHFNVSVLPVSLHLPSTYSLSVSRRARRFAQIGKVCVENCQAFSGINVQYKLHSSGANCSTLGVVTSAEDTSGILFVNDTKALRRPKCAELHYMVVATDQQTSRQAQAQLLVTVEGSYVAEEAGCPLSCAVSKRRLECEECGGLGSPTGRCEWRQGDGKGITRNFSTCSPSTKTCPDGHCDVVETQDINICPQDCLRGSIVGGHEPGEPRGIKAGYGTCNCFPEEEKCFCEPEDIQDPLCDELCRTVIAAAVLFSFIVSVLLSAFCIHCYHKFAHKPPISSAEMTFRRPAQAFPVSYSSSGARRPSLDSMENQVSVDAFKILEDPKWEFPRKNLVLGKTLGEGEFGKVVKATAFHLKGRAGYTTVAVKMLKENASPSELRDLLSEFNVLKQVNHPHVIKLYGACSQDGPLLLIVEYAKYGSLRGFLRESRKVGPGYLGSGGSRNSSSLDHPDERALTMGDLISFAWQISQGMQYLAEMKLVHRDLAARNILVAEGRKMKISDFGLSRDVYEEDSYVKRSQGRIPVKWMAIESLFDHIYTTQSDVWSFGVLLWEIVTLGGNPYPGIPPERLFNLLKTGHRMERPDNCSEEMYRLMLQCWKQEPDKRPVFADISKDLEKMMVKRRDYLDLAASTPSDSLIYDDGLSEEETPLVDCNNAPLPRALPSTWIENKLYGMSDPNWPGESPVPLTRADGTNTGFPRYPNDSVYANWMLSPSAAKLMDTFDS

Row | Molecule | RET kinase autophosphorylation activity as a percentage of control RET kinase activity [3, 6] | RET kinase autophosphorylation activity as a percentage of control RET kinase activity [3, 7] | IC50 [4] | other results
1 | COc1cc(Nc2ncc(F)c(Nc3ccc4c(n3)N(COP(=O)(O)O)C(=O)C(C)(C)O4)n2)cc(OC)c1OC [Compound 9, (6-(5-fluoro-2-(3,4,5-trimethoxyphenylamino)pyrimidin-4-ylamino)-2,2-dimethyl-3-oxo-2H-pyrido[3,2-b][1,4]oxazin-4(3H)-yl)methyldihydrogenphosphate] | 11% |  |  | metabolism of prodrug to the active drug Compound 1 [1]: metabolizes in vivo to the corresponding active 2,4-pyrimidinediamine compound; metabolism of prodrug to the active drug Compound 1 [2]: metabolize to the active drug Compound 1; RET kinase autophosphorylation activity as a percentage of control RET kinase activity [3, 5]: 47%
2 | Cc1ccc(Nc2ncc(F)c(Nc3ccc(OCC#N)cc3)n2)cc1S(N)(=O)=O [Compound 10] | 1% | 19% |  | 
3 | COc1cc(Nc2ncc(F)c(Nc3ccc4c(n3)NC(=O)C(C)(C)O4)n2)cc(O)c1OC [Compound 4, 6-(5-fluoro-2-(3-hydroxy-4,5-dimethoxy-phenylamino)pyrimidin-4-ylamino)-2,2-dimethyl-2H-pyrido[3,2-b][1,4]oxazin-3(4H)-one] |  |  | 7.3 nM | 
4 | Cc1cc(Nc2ncc(F)c(NC3CCCC3C(N)=O)n2)ccc1N1CCN(C)CC1 (centres unmarked) [Compound 7, 2-(5-fluoro-2-(3-methyl-4-(4-methylpiperazin-1-yl)phenylamino)pyrimidin-4-ylamino)cyclo-pentanecarboxamide] | 2% | 34% |  | RET kinase autophosphorylation activity as a percentage of control RET kinase activity [3, 8]: 74%
5 | Cc1nc2ccc(Nc3ncc(F)c(Nc4ccc5c(c4)NC(=O)C(C)(C)S5)n3)cc2[nH]1 [Compound 3, 6-(5-fluoro-2-(2-methyl-1H-benzo[d]imidazol-6-ylamino)pyrimidin-4-ylamino)-2,3-dimethyl-2H-benzo[b][1,4]thiazin-3(4H)-one] |  |  | 16.5 nM | 
6 | 2-(3-(4-(2,2-difluoro-3-oxo-3,4-dihydro-2H-pyrido[3,2-b][1,4]oxazin-6-ylamino)-5-fluoropyrimidin-2-ylamino)phenoxy)-N-methylacetamide [Compound 2] | 0% |  | 11.8 nM | RET kinase autophosphorylation activity as a percentage of control RET kinase activity [3, 9]: 0%; RET kinase autophosphorylation activity as a percentage of control RET kinase activity ([3]; compound concentration 3 micromoles): 0%
7 | Cc1cc(Nc2cc(N3CCN(C)CC3)nc(Sc3ccc(NC(=O)C4CC4)cc3)n2)[nH]n1 [Compound 6, N-(4-(4-(3-methyl-1H-pyrazol-5-ylamino)-6-(4-methylpiperazin-1-yl)pyrimidin-2-ylthio)phenyl)cyclopropanecarboxamide] | 4% | 26% |  | RET kinase autophosphorylation activity as a percentage of control RET kinase activity [3, 8]: 78%
8 | Cc1noc(COc2ccc(Nc3nc(Nc4cccc(O)c4)ncc3F)cc2)n1 [Compound 5, 3-(5-fluoro-4-(4-((3-methyl-1,2,4-oxadiazol-5-yl)methoxy)phenylamino)pyrimidin-2-ylamino)phenol] | 0% |  |  | RET kinase autophosphorylation activity as a percentage of control RET kinase activity ([3]; compound concentration 0.01 micromoles): 0%; RET kinase autophosphorylation activity as a percentage of control RET kinase activity [3, 9]: 0%; RET kinase autophosphorylation activity as a percentage of control RET kinase activity ([3]; compound concentration 0.1 micromoles): 0%; RET kinase autophosphorylation activity as a percentage of control RET kinase activity [3, 5]: 0%
